Tested on: 377384-186-R-J1-PDC complex spheroid viability
Test: Anticancer human tumor 377384-186-R-J1-PDC patient-derived pancreatic carcinoma cell line growth inhibition [CLK]
Conditions: for IC50: curve of first compound; for viability, T/C: stronger effect = lower value
In short: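 Multi-cell-type spheroids combined patient-derived tumor cells with HUVEC endothelial cells and human mesenchymal stem cells. Paired agents were dosed in half-log steps down from about clinical Cmax, or from 10 microM where Cmax was unknown.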

[1] = second compound 0.0316 µM, first compound 0.00316 µM
[2] = second compound 0.0316 µM, first compound 0.01 µM
[3] = second compound 0.0316 µM, first compound 0.0316 µM
[4] = second compound 0.0316 µM, first compound 0.1 µM
[5] = second compound 0.0316 µM, first compound 0.316 µM
[6] = second compound 0.0316 µM, first compound 1 µM
[7] = second compound 0.1 µM, first compound 0.00316 µM
[8] = second compound 0.1 µM, first compound 0.01 µM
[9] = second compound 0.1 µM, first compound 0.0316 µM
[10] = second compound 0.1 µM, first compound 0.1 µM
[11] = second compound 0.1 µM, first compound 0.316 µM
[12] = second compound 0.1 µM, first compound 1 µM
[13] = second compound 0.316 µM, first compound 0.00316 µM
[14] = second compound 0.316 µM, first compound 0.01 µM
[15] = second compound 0.316 µM, first compound 0.0316 µM
[16] = second compound 0.316 µM, first compound 0.1 µM
[17] = second compound 0.316 µM, first compound 0.316 µM
[18] = second compound 0.316 µM, first compound 1 µM
[19] = second compound 1 µM, first compound 0.00316 µM
[20] = second compound 1 µM, first compound 0.01 µM
[21] = second compound 1 µM, first compound 0.0316 µM
[22] = second compound 1 µM, first compound 0.1 µM
[23] = second compound 1 µM, first compound 0.316 µM
[24] = second compound 1 µM, first compound 1 µM
[25] = second compound 3.16 µM, first compound 0.00316 µM
[26] = second compound 3.16 µM, first compound 0.01 µM
[27] = second compound 3.16 µM, first compound 0.0316 µM
[28] = second compound 3.16 µM, first compound 0.1 µM
[29] = second compound 3.16 µM, first compound 0.316 µM
[30] = second compound 3.16 µM, first compound 1 µM
[31] = second compound 10 µM, first compound 0.00316 µM
[32] = second compound 10 µM, first compound 0.01 µM
[33] = second compound 10 µM, first compound 0.0316 µM
[34] = second compound 10 µM, first compound 0.1 µM
[35] = second compound 10 µM, first compound 0.316 µM
[36] = second compound 10 µM, first compound 1 µM
[37] = second compound 0.0316 µM, first compound 3.16 µM
[38] = second compound 0.0316 µM, first compound 10 µM
[39] = second compound 0.1 µM, first compound 3.16 µM
[40] = second compound 0.1 µM, first compound 10 µM
[41] = second compound 0.316 µM, first compound 3.16 µM
[42] = second compound 0.316 µM, first compound 10 µM
[43] = second compound 1 µM, first compound 3.16 µM
[44] = second compound 1 µM, first compound 10 µM
[45] = second compound 3.16 µM, first compound 3.16 µM
[46] = second compound 3.16 µM, first compound 10 µM
[47] = second compound 10 µM, first compound 3.16 µM
[48] = second compound 10 µM, first compound 10 µM
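Note: spheroids exposed to agents for 7 days before reading.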
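Throughout, for viability, T/C: luminescence signal used as a stand-in for viable cells.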

CCc1c2c(nc3ccc(O)cc13)-c1cc3c(c(=O)n1C2)COC(=O)[C@]3(O)CC + CNC(=O)c1ccc(Nc2nc(OC3CCCC3)c3c(-c4ccc5nc(C)oc5c4)c[nH]c3n2)c(OC)c1
IC50 (second compound 0.0316 µM): < 3.16 nM
IC50 (second compound 0.1 µM): < 3.16 nM
IC50 (second compound 0.316 µM): < 3.16 nM
IC50 (second compound 1 µM): < 3.16 nM
IC50 (second compound 3.16 µM): < 3.16 nM
IC50 (second compound 10 µM): < 3.16 nM
viability, T/C [1]: 25.8%
viability, T/C [2]: 11.6%
viability, T/C [3]: 4.72%
viability, T/C [4]: 2.28%
viability, T/C [5]: 1.46%
viability, T/C [6]: 0.55%
viability, T/C [7]: 17.5%
viability, T/C [8]: 9.08%
viability, T/C [9]: 4.28%
viability, T/C [10]: 2.07%
viability, T/C [11]: 1.21%
viability, T/C [12]: 0.63%
viability, T/C [13]: 10.7%
viability, T/C [14]: 7%
viability, T/C [15]: 3.57%
viability, T/C [16]: 2.54%
viability, T/C [17]: 1.19%
viability, T/C [18]: 0.53%
viability, T/C [19]: 12.9%
viability, T/C [20]: 8.91%
viability, T/C [21]: 3.7%
viability, T/C [22]: 1.76%
viability, T/C [23]: 1.06%
viability, T/C [24]: 0.66%
viability, T/C [25]: 14.4%
viability, T/C [26]: 8.07%
viability, T/C [27]: 3.3%
viability, T/C [28]: 1.8%
viability, T/C [29]: 1.68%
viability, T/C [30]: 0.58%
viability, T/C [31]: 13.4%
viability, T/C [32]: 8.53%
viability, T/C [33]: 3.76%
viability, T/C [34]: 1.55%
viability, T/C [35]: 0.98%
viability, T/C [36]: 0.79%

C=C(F)C(=O)N1CCN(c2nc(OCC3CCCN3C)nc3c2CCN(c2cccc4cccc(Cl)c24)C3)CC1CC#N (stereo not drawn) + CNC(=O)c1ccc(Nc2nc(OC3CCCC3)c3c(-c4ccc5nc(C)oc5c4)c[nH]c3n2)c(OC)c1
IC50 (second compound 0.0316 µM): 2060 nM
IC50 (second compound 0.1 µM): 145 nM
IC50 (second compound 0.316 µM): < 31.6 nM
IC50 (second compound 1 µM): < 31.6 nM
IC50 (second compound 3.16 µM): < 31.6 nM
IC50 (second compound 10 µM): < 31.6 nM
viability, T/C [3]: 99.6%
viability, T/C [4]: 93.8%
viability, T/C [5]: 102%
viability, T/C [6]: 96.6%
viability, T/C [37]: 22.3%
viability, T/C [38]: 0.88%
viability, T/C [9]: 54.3%
viability, T/C [10]: 50.9%
viability, T/C [11]: 45.7%
viability, T/C [12]: 40.4%
viability, T/C [39]: 23.1%
viability, T/C [40]: 0.37%
viability, T/C [15]: 21.2%
viability, T/C [16]: 22.8%
viability, T/C [17]: 20.7%
viability, T/C [18]: 22.1%
viability, T/C [41]: 12%
viability, T/C [42]: 0.26%
viability, T/C [21]: 19.5%
viability, T/C [22]: 19.3%
viability, T/C [23]: 19%
viability, T/C [24]: 17.9%
viability, T/C [43]: 11.1%
viability, T/C [44]: 0.2%
viability, T/C [27]: 20.5%
viability, T/C [28]: 20.9%
viability, T/C [29]: 18.3%
viability, T/C [30]: 20.3%
viability, T/C [45]: 8.66%
viability, T/C [46]: 0.22%
viability, T/C [33]: 20.6%
viability, T/C [34]: 21.4%
viability, T/C [35]: 21.9%
viability, T/C [36]: 17.1%
viability, T/C [47]: 8.61%
viability, T/C [48]: 0.3%

COc1ccc([C@@H](O)c2cc(-c3ncnc4cc(N5CCOCC5)ccc34)c(F)cc2Cl)nn1 + CN1CCN(c2cc(C(=O)Nc3cc4cc(-c5cnn(C)c5)ccc4cn3)ccn2)CC1
IC50 (second compound 0.0316 µM): 6040 nM
IC50 (second compound 0.1 µM): 4230 nM
IC50 (second compound 0.316 µM): < 31.6 nM
IC50 (second compound 1 µM): < 31.6 nM
IC50 (second compound 3.16 µM): < 31.6 nM
IC50 (second compound 10 µM): < 31.6 nM
viability, T/C [3]: 119%
viability, T/C [4]: 111%
viability, T/C [5]: 88.8%
viability, T/C [6]: 78.2%
viability, T/C [37]: 59.3%
viability, T/C [38]: 42.5%
viability, T/C [9]: 114%
viability, T/C [10]: 99.9%
viability, T/C [11]: 73.7%
viability, T/C [12]: 70.6%
viability, T/C [39]: 57.6%
viability, T/C [40]: 37.2%
viability, T/C [15]: 18.3%
viability, T/C [16]: 22.8%
viability, T/C [17]: 16.8%
viability, T/C [18]: 18.1%
viability, T/C [41]: 18.5%
viability, T/C [42]: 16%
viability, T/C [21]: 0.76%
viability, T/C [22]: 0.63%
viability, T/C [23]: 0.7%
viability, T/C [24]: 1.13%
viability, T/C [43]: 1.12%
viability, T/C [44]: 1.02%
viability, T/C [27]: 0.38%
viability, T/C [28]: 0.32%
viability, T/C [29]: 1.16%
viability, T/C [30]: 0.36%
viability, T/C [45]: 0.35%
viability, T/C [46]: 0.98%
viability, T/C [33]: 0.49%
viability, T/C [34]: 0.35%
viability, T/C [35]: 0.33%
viability, T/C [36]: 0.39%
viability, T/C [47]: 1.26%
viability, T/C [48]: 0.36%

CCN1CCN(Cc2ccc(Nc3ncc(F)c(-c4cc(F)c5nc(C)n(C(C)C)c5c4)n3)nc2)CC1 + CNC(=O)c1ccc(Nc2nc(OC3CCCC3)c3c(-c4ccc5nc(C)oc5c4)c[nH]c3n2)c(OC)c1
IC50 (second compound 0.0316 µM): 299 nM
IC50 (second compound 0.1 µM): 17.4 nM
IC50 (second compound 0.316 µM): < 3.16 nM
IC50 (second compound 1 µM): < 3.16 nM
IC50 (second compound 3.16 µM): < 3.16 nM
IC50 (second compound 10 µM): < 3.16 nM
viability, T/C [1]: 105%
viability, T/C [2]: 84.2%
viability, T/C [3]: 80%
viability, T/C [4]: 66.7%
viability, T/C [5]: 44.6%
viability, T/C [6]: 37.4%
viability, T/C [7]: 58.9%
viability, T/C [8]: 53.9%
viability, T/C [9]: 45.8%
viability, T/C [10]: 41.1%
viability, T/C [11]: 34.4%
viability, T/C [12]: 29.3%
viability, T/C [13]: 19.5%
viability, T/C [14]: 18.5%
viability, T/C [15]: 21.5%
viability, T/C [16]: 19.9%
viability, T/C [17]: 24.6%
viability, T/C [18]: 22.4%
viability, T/C [19]: 18.6%
viability, T/C [20]: 23.3%
viability, T/C [21]: 20.4%
viability, T/C [22]: 20.8%
viability, T/C [23]: 20.1%
viability, T/C [24]: 23.3%
viability, T/C [25]: 20.1%
viability, T/C [26]: 22.1%
viability, T/C [27]: 19.7%
viability, T/C [28]: 18.9%
viability, T/C [29]: 18.9%
viability, T/C [30]: 18.7%
viability, T/C [31]: 20.3%
viability, T/C [32]: 18%
viability, T/C [33]: 16.9%
viability, T/C [34]: 17.8%
viability, T/C [35]: 22%
viability, T/C [36]: 25.9%

Reference: PubChem BioAssay AID2060616 (Molecular Pharmacology Branch, DTP, NCI, 2025)
